Data on 17 sequences can be found in patent US5880095A, “Cholesteryl ester transfer protein inhibitor peptides and prophylactic and therapeutic anti-arteriosclerosis agents” (LG Chemical Ltd., priority 1994, dated 1999).

Data set [1] concerns the target T1, pure CETP separated from human blood plasma (Homo sapiens, UniProt P11597).
T1 construct: Pure CETP was separated from human blood plasma in accordance with the method of Hesler et al; from tissue; host or cells: human blood plasma
T1 sequence (P11597 18-493): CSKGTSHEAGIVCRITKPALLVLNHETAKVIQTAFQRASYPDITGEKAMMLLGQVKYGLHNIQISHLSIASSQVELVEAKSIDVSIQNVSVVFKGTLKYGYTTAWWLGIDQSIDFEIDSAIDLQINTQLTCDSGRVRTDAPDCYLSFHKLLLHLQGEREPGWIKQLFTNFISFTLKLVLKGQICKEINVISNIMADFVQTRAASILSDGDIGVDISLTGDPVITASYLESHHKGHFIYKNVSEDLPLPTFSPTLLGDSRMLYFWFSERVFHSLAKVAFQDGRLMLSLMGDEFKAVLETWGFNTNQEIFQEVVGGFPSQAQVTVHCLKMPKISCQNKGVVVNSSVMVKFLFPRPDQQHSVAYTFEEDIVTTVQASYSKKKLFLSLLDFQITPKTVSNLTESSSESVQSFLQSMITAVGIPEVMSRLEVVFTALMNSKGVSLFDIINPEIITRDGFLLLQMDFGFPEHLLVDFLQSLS
Put plainly: Determination of CETP inhibitory activity (CE transfer from [3H]-HDL to LDL), pure CETP as CETP source. Type of data set: biochemical. Conditions: for inhibition at 7 µM: final conc. 7 μM; for inhibition at 9 µM: final conc. 9 μM. The method, then:
(§1) LDL and [^3 H]-cholesteryl oleate-labelled HDL were synthesized in accordance with the method of Morton et al.(see, J. Biol. Chem., 256, 11992-11995(1981)) and then separated using an ultracentrifuge(Beckman XL 70). LDL and [^3 H]-HDL, thus prepared, were used as a CE-receptor and a CE-donor, respectively.
(§2) Pure CETP was separated from human blood plasma in accordance with the method of Hesler et al.(see, J. Biol. Chem., 262, 2275-2282(1987)) and used as a CETP source.
(§3) 0.3 ml of LDL, 0.05 ml of [^3 H]-HDL and 0.05 ml of the CETP source, which were prepared above, and 0.05 ml of a CETP inhibitor were added into a 1.5 ml tube and reacted at 37° C. for 3 hours.
(§4) When the reaction was finished, LDL was precipitated in accordance with the method of Morton et al.(see, Biochim. Biophys. Acta, 663, 350-355(1981)). The amount of the isotope transferred to LDL was determined with a liquid scintillation counter(Packard Tricarb 1600 TR) using a part of the supernatant, and the activity of CETP was calculated therefrom.
(§5) The inhibitory activity of the CETP inhibitor was calculated from the CETP activities of the experimental group, in which the CETP inhibitor was added, and that of control group, in which no CETP inhibitor was added, as follows: [formula]

Data set [2] has as its target T2, CETP (human blood plasma as CETP source) (Homo sapiens, UniProt P11597).
T2 construct: human blood plasma itself was used as the CETP source; from tissue; host or cells: human blood plasma (used as such)
T2 sequence (P11597 18-493): T1 sequence (P11597 18-493)
Put plainly: Determination of CETP inhibitory activity, human blood plasma itself as CETP source. Type of data set: biochemical. The method, then:
as §1, §3, §4, §5
Further, the same procedures as in the Reference Example, except that human blood plasma itself was used as the CETP source, were repeated to determine CETP inhibitory activity of pure 3 kDa peptide.
CETP inhibitory activities of peptides P28, P10, P18, P24, P20 and P14 were determined in accordance with the method of Reference Example 1 using pure CETP or human blood plasma as a CETP source. To exclude possible nonspecific inhibition, a 2 kDa soluble peptide having an optional amino acid sequence was synthesized, and CETP inhibitory activity thereof was determined in a similar manner(control group).

For data set [3], the system named is Human fibroblast cell line(A431, ATCC CRL 1555). Put plainly: Toxicity test on cultured cells. Type of data set: cell-based. Conditions: 10% (wt/vol) peptide, 72 hours, DMEM with 10% FBS, compared with control without peptide. How it is done: Human fibroblast cell line(A431, ATCC CRL 1555) was cultured on DMEM medium containing 10% fetal bovine serum(FBS), with the addition of 10% (wt/vol) Peptide P28, P18, P10, P24, P20 or P14, for 72 hours.

In another data set the target is T3, CETP (Homo sapiens, UniProt P11597).
T3 construct: Pure CETP was separated from human blood plasma in accordance with the method of Hesler et al; from tissue; host or cells: human blood plasma
T3 sequence (P11597 18-493): T1 sequence (P11597 18-493)
Put plainly: CETP inhibitory activity of Peptide P28 according to the substrate (CE-receptor VLDL, LDL, HDL or LDLR). It counts as biochemical. Particulars: final concentration 2 μM. The method, then:
as §1, §2, §3, §4, §5
In order to identify the inhibitory mechanism of Peptide P28 in blood, CETP inhibitory activity of Peptide P28 was determined in accordance with the method of Reference Example 1, using VLDL, LDL, HDL or re-synthesized LDL(LDLR) as a CE-receptor. LDLR was synthesized from LDL obtained in Reference Example 1 by the method of Morton et al.(see, J. Biol. Chem., 256, 11992-11995(1981)). The LDL was delipidated with chloroform and subjected to a gel chromatography to obtain ApoB100 protein. Phosphatidylcholine and cholesteryl oleate was thoroughly mixed, dried using nitrogen gas, and ApoB100 protein obtained above was added thereto. The mixture was reacted with stirring, dialyzed against tris buffer, and subjected to a gel chromatography to obtain LDLR.

The mark [4] stands for this setting: alanine variants of P10, CETP source not given.
The mark [5] stands for this setting: final conc. of peptide 2 μM, CETP source pure CETP, synthesized peptides.
The mark [6] stands for this setting: final conc. of peptide 2 μM, CETP source human plasma, P28' and P13 produced in E. coli, read-out: Inhibitory Activity.
Where [7] appears, read: conc. of inhibitor 2 μM, CETP source human plasma, peptides expressed in E. coli, read-out: Inhibitory Activity (Mean ± SD).

Read-outs that look alike come from different tables or passages of the source. No end group written: not given here.

For the sequence ADTSPEDKMQ [Variant A], the inhibition at 7 µM in data set [1] (setting [4]) was -12%.

As for EATSPEDKMQ [Variant B], the inhibition at 7 µM in data set [1] (setting [4]) is -15%.

EDASPEDKMQ [Variant C]: in data set [1] (final conc. 8 μM, alanine variants of P10, CETP source not given), the inhibition at 8 µM was -6%.

Take EDTAPEDKMQ [Variant D]: the inhibition at 7 µM in data set [1] (setting [4]) is -12%.

Turning to EDTSAEDKMQ [Variant E], the inhibition at 9 µM in data set [1] (setting [4]) was -6%.

In the case of EDTSLLDKMQDYVKQATR [Peptide P18], the “Inhibitory Activity (Mean ± S.D.)” value in data set [2] (final conc. of peptide 2 μM, CETP source human plasma, synthesized peptides) worked out at 40 ± 5.5%; in data set [1] (setting [5]) it was 90 ± 3.5%. Also, the “change in growth condition and morphology of cultured cells” value in data set [3] is given as “no change”.

On to EDTSPADKMQ [Variant F], for which the inhibition at 6 µM in data set [1] (final conc. 6 μM, alanine variants of P10, CETP source not given) amounted to 29%.

EDTSPEAKMQ [Variant G]: the inhibition at 2 µM in data set [1] (final conc. 2 μM, alanine variants of P10, CETP source not given, read-out: CETP inhibitory activity) was -3%.

Regarding EDTSPEDAMQ [Variant H], the inhibition at 5 µM in data set [1] (final conc. 5 μM, alanine variants of P10, CETP source not given) came out at 5%.

With EDTSPEDKAQ [Variant I], the inhibition at 9 µM in data set [1] (setting [4]) came out at 69%.

Take EDTSPEDKMA [Variant J]: the inhibition at 7 µM in data set [1] (setting [4]) was determined as 41%.

Regarding EDTSPEDKMQ [Peptide P10], the inhibition at 2 µM in data set [2] (setting [6]) is 45 ± 2.3%; in data set [2] (final conc. of peptide 2 μM, CETP source human plasma, synthesized peptides, read-out: Inhibitory Activity (Mean ± S.D.)) it was 50 ± 4.5%; in data set [1] (final conc. of peptide 2 μM, CETP source pure CETP, synthesized peptides, read-out: Inhibitory Activity (Mean ± S.D.)), 100 ± 2%. Besides, the “change in growth condition and morphology of cultured cells” value in data set [3] is given as “no change”.

As for EDTSPEDKMQDYVK [Peptide P14], the inhibition at 2 µM in data set [2] (setting [7]) stood at 15 ± 1.5%. In addition, in data set [1] (setting [5]), the “Inhibitory Activity (Mean ± S.D.)” value is given as 50 ± 3.5%. The “change in growth condition and morphology of cultured cells” value in data set [3] was “no change”.

On to EDTSPEDKMQDYVKQATRTA [Peptide P20], for which the inhibition at 2 µM in data set [2] (setting [7]) worked out at 45 ± 2.2%. For the same sequence, the “Inhibitory Activity (Mean ± S.D.)” value in data set [1] (setting [5]) is on record as 90 ± 1.5%. The “change in growth condition and morphology of cultured cells” value in data set [3] was “no change”.

Take EDTSPEDKMQDYVKQATRTAQDAL [Peptide P24]: in data set [2] (setting [7]), the inhibition at 2 µM came out at 50 ± 0.8%. Besides, in data set [1] (setting [5]), the “Inhibitory Activity (Mean ± S.D.)” value was 100 ± 2.5%. In addition, the “change in growth condition and morphology of cultured cells” value in data set [3] was “no change”.

With “EDTSPEDKMQDYVKQATRTAQDALTSVK [Peptide P28]”, the inhibition at 0.001 µM in data set [2] (1 nM, human blood plasma itself as CETP source, read-out: CETP inhibitory activity (FIG. 4, curve B)) is around 50%; in data set [1] (1 nM, pure CETP separated from human blood plasma, read-out: CETP inhibitory activity (FIG. 4, curve A)) it was around 100%. Moreover, the inhibition at 2 µM is 50% on CETP (CE-receptor LDL, read-out: inhibition of the transfer of CE from HDL to LDL); around 10% at CETP (CE-receptor VLDL, read-out: inhibition of the transfer of CE from HDL to VLDL); 55% on CETP (CE-receptor re-synthesized LDL (LDLR), read-out: inhibition of the transfer of CE from HDL to LDLR).

As to SEAEDASLLSFMQ [Peptide P13], the inhibition at 2 µM in data set [2] (setting [6]) is 34 ± 2.9%.
